# Measurements: patent publication US9271943B2, “Arsenic compound solution and albumin nanoparticle and lyophilized preparation entrapping arsenic compound prepared using same” (ZHEJIANG CHINESE MEDICAL UNIVERSITY, priority 2011, dated 2016)
# How the values were obtained:
# [1] = tested on: human T-cell lymphoma cell line jurkat cells; details: jurkat cells 2.0×10^5/ml, As2O3 0.5, 1.0, 2.0, 4.0 μmol/L; cited from earlier work
# [2] = tested on: human T lymphoma cell lines jurkat cell; assay: Mitochondrial membrane potential, JC-1 fluorescent probe; format: cell-based
# Excerpt: Beyotime mitochondrial membrane potential detection kit (JC-1) is used; after the cells have been labeled with the fluorescent probe, they can be observed with a fluorescence microscope using conventional settings for observing red and green fluorescence, and photographed.
# Measurement principle: The JC-1 fluorescent probe is used to detect mitochondrial potential; when the mitochondrial membrane potential is high, JC-1 aggregates in the mitochondrial matrix to form a polymer, which can produce red fluorescence; when the mitochondrial membrane potential is low, JC-1 can not aggregate in the mitochondrial matrix or the aggregation decreases, in this case, JC-1 exists in monomeric form and generates green fluorescence.
# 100 μl of suspension cultured cell liquid is centrifugalized and washed to obtain a sample. The sample is made into smears and observed by fluorescence microscopy, and three pictures are taken respectively by using conventional filter, red fluorescence, and green fluorescence sets in the same field of view. […]
# [3] = tested on: human malignant B cell lymphoma cell line Raji cells; details: Raji cells 2.0×10^5/ml, 0.5˜2.0 μmol/L As2O3, 24, 48, 72 hours; cited from earlier work
# [4] = tested on: human T-cell lymphoma cell line jurkat cells; assay: Trypan blue count of survival and dead jurkat cells; format: cell-based; details: for effect on proliferation / cell growth of jurkat cells: 0.2-0.8 μg/ml, 24, 48, 72 h; for Death rate / the number of survival cells / total number of the cells: jurkat cells
# Method: (§1) Human lymphoma cell line cells are cultured in RPMI 1640 culture medium containing 10% new-born calf serum, placed in a 5% CO2 incubator, and cultured at 37° C. with saturated humidity. The medium is changed every 1-2 days. When the cells grow well, the drug is applied to the cells.
# The human T-cell lymphoma cell line jurkat cells in exponential growth phase are inoculated into a 24-well plate and cultured; 1 ml of jurkat cells with a cell density of 2χ10^5/ml are inoculated into each well, and the 24-well plate is placed in a 37° C., 5% CO2 incubator. Jurkat cells are treated with the arsenic compound solutions with different final As2O3 concentrations of 0, 0.2, 0.4, 0.8 μg/ml for 24, 48, 72 hours, and the arsenic compound solutions with different final As2O3 concentrations are prepared as follows: the arsenic compound solution obtained in Example 1 is first diluted with deionized water to 80 μg/ml, and then diluted to the desired concentration with 1640 culture fluid. The treated cell suspensions are stained with physiological saline solution of 0.3% trypan blue for determining survival, dead cell count, and the results shown in Table 3: […]
# [5] = tested on: human B lymphoma cell line Daudi cells; assay: Trypan blue count of survival and dead Daudi cells; format: cell-based; details: for Death rate / the number of survival cells: Daudi cells
# Method: as §1
# The growing well human B lymphoma cell line Daudi cells are cultured in a 24-well plate; each well is inoculated with 1 ml of the cell culture with a cell density of 1.5χ10^5/ml, and they are divided into experimental and control groups. […], the cells in each group are treated with the arsenic compound solution with respective concentration in terms of As2O3 added, for example, the cells in 0.8 μg/ml As2O3 group are treated with 0.8 μg/ml arsenic compound solution, and the arsenic compound solutions with different concentration are prepared by the following method: the arsenic compound solution obtained in Example 1 is first diluted with deionized water to 80 μg/ml, and then diluted to the desired concentration with 1640 culture fluid to obtain arsenic compound solutions with different concentration. The control group is added with a equal volume of culture fluid. The 24-well plate is placed in a 5% CO2 incubator, the cells are cultured at 37° C. and saturated humidity for a predetermined time, and then detected correspondingly. The cell suspensions are stained by physiological saline solution of 0.3% trypan blue for counting survival, dead cells; and the results are shown in Table 2: […]
# [6] = tested on: human T cell lymphoma cell line jurkat cells; assay: Detection of apoptotic bodies by light microscopy; format: cell-based; details: 0.8 μg/ml As2O3, 24 h, FIG. 12B
# Method: Human B lymphoma cell line Daudi cells and human T lymphoma cell line jurkat cells in the control group and As2O3-treated group ([…]) which have been cultured for 24 h are collected to prepare smears, Wright-Giemsa stained, and observed under a light microscope to determine the morphological changes of cells.
# 1) apoptotic bodies: human B lymphoma cell line Daudi cells and human T-cell lymphoma cell line jurkat cells in the control group and in the As2O3-treated group which have been cultured or treated for 24 h are collected to prepare smears, subjected to the detection of apoptotic bodies and photographed. The results are shown in FIGS. 12A and 12B; FIG. 12A is a light microscopy image of apoptotic bodies of human T cell lymphoma cell line jurkat cells in the control group; and FIG. 12B is a light microscopy image of apoptotic bodies of human T cell lymphoma cell line jurkat cells treated with […] As2O3, and the […] As2O3 is prepared as follows: the arsenic compound solution obtained in Example 1 is first diluted with deionized water to 80 μg/ml, and then diluted to […] with 1640 culture fluid.
# [7] = tested on: human T-cell lymphoma cell line jurkat cells; assay: Cell apoptosis by AnnexinV/PI double staining flow cytometry; format: cell-based; details: for Apoptotic rate / Early apoptotic rate / Early apoptotic rate + Apoptotic rate / Survival rate: jurkat cells, treated for 44 hours
# Method: The human T-cell lymphoma cell line jurkat cells in exponential growth phase are inoculated into a 6-well plate and cultured; 3 ml of jurkat cells with a cell density of 2χ10^5/ml are inoculated into each well, and the 6-well plate is placed in a 37° C., 5% CO2 incubator. After being cultured for 4 hours, […], and the arsenic compound solutions with different final As2O3 concentrations are prepared as follows: the arsenic compound solution obtained in Example 1 is first diluted with deionized water to 80 μg/ml, and then diluted to the desired concentration with 1640 culture fluid. The control group is treated with an equivalent volume of 1640 culture fluid. After being treated for 44 hours, jurkat cells in the experimental and control groups with a cell density of 1χ10^6/ml are collected, and apoptosis is studied by AnnexinV/PI double staining flow cytometry.)
# The cells in the experimental and control groups with a density of 1χ10^6 jurkat cells/ml are respectively collected, washed twice with PBS, and subjected to centrifugation at 1000 r/min for 5 min, and the supernatant is discarded. Each 100 μl of the cell suspension is mixed with 5 μL Annexin-V, and then mixed with 2 μL of propidium iodide (PI). The mixtures are incubated at room temperature and dark conditions for 15 min, then mixed with 400 μl of 1χAnnexin-V binding buffer after incubation, and placed in an ice water bath. Meanwhile, the flow cytometry instrument is subjected to regular correct, besides, the normal cells in the control group are collected to prepare positive control and negative control for dead cells and survival apoptotic cells to correct the instrument, so that the instrument has more precise control threshold for different characteristic samples. Then, the stained cells were detected by flow cytometry; and similar results are obtained by experiment repeated: […]
substance,measurement,setting,value
arsenic trioxide [As2O3],effect on cell growth,[1],did not inhibit cell growth
same,number of the cells and red fluorescence intensity of JC-1 in the mitochondria,[2]; 0.4 μg/m As2O3 treated group compared with control group,have decreased significantly
same,number of the cells and red fluorescence intensity of JC-1 in the cells,[2]; 0.8 As2O3 treated group compared with 0.4 μg/m group,have also decreased significantly
same,effect on cell growth (number of active cells),[3],inhibited cell growth in a dose dependent manner
same,effect on proliferation / cell growth of jurkat cells,[4],can inhibit cell growth
same,effect on proliferation / cell growth of jurkat cells,[4]; listed as arsenic compound,significant inhibitory effect
same,Death rate,"[4]; As2O3 0.2 μg/ml, 24 h",5.2%
same,the number of survival cells,"[4]; As2O3 0.2 μg/ml, 24 h",7.56 10^5/ml
same,total number of the cells,"[4]; As2O3 0.2 μg/ml, 24 h",7.98 10^5/ml
same,Death rate,"[4]; As2O3 0.2 μg/ml, 48 h",16%
same,the number of survival cells,"[4]; As2O3 0.2 μg/ml, 48 h",10.29 10^5/ml
same,total number of the cells,"[4]; As2O3 0.2 μg/ml, 48 h",12.18 10^5/ml
same,Death rate,"[4]; As2O3 0.2 μg/ml, 72 h",46.1%
same,the number of survival cells,"[4]; As2O3 0.2 μg/ml, 72 h",4.95 10^5/ml
same,total number of the cells,"[4]; As2O3 0.2 μg/ml, 72 h",9.19 10^5/ml
same,Death rate,"[4]; As2O3 0.4 μg/ml, 24 h",25.9%
same,the number of survival cells,"[4]; As2O3 0.4 μg/ml, 24 h",4.87 10^5/ml
same,total number of the cells,"[4]; As2O3 0.4 μg/ml, 24 h",6.57 10^5/ml
same,Death rate,"[4]; As2O3 0.4 μg/ml, 48 h",34%
same,the number of survival cells,"[4]; As2O3 0.4 μg/ml, 48 h",5.12 10^5/ml
same,total number of the cells,"[4]; As2O3 0.4 μg/ml, 48 h",7.73 10^5/ml
same,Death rate,"[4]; As2O3 0.4 μg/ml, 72 h",50.9%
same,the number of survival cells,"[4]; As2O3 0.4 μg/ml, 72 h",3.66 10^5/ml
same,total number of the cells,"[4]; As2O3 0.4 μg/ml, 72 h",7.45 10^5/ml
same,Death rate,"[4]; As2O3 0.8 μg/ml, 24 h",47.3%
same,the number of survival cells,"[4]; As2O3 0.8 μg/ml, 24 h",2.92 10^5/ml
same,total number of the cells,"[4]; As2O3 0.8 μg/ml, 24 h",5.53 10^5/ml
same,Death rate,"[4]; As2O3 0.8 μg/ml, 48 h",55%
same,the number of survival cells,"[4]; As2O3 0.8 μg/ml, 48 h",2.5 10^5/ml
same,total number of the cells,"[4]; As2O3 0.8 μg/ml, 48 h",5.61 10^5/ml
same,Death rate,"[4]; As2O3 0.8 μg/ml, 72 h",69.7%
same,the number of survival cells,"[4]; As2O3 0.8 μg/ml, 72 h",1.84 10^5/ml
same,total number of the cells,"[4]; As2O3 0.8 μg/ml, 72 h",6.08 10^5/ml
same,effect on cell viability and growth of Daudi cells,"[5]; 0.1-0.8 μg/ml, 20 h and 68 h, dose dependence",significantly reduce the cell viability
same,Death rate,"[5]; As2O3 0.1 μg/ml, 20 h",33%
same,the number of survival cells,"[5]; As2O3 0.1 μg/ml, 20 h",1.40 10^5/ml
same,Death rate,"[5]; As2O3 0.1 μg/ml, 68 h",66%
same,the number of survival cells,"[5]; As2O3 0.1 μg/ml, 68 h",1.24 10^5/ml
same,Death rate,"[5]; As2O3 0.2 μg/ml, 20 h",44%
same,the number of survival cells,"[5]; As2O3 0.2 μg/ml, 20 h",1.27 10^5/ml
same,Death rate,"[5]; As2O3 0.2 μg/ml, 68 h",75%
same,the number of survival cells,"[5]; As2O3 0.2 μg/ml, 68 h",0.77 10^5/ml
same,Death rate,"[5]; As2O3 0.4 μg/ml, 20 h",56%
same,the number of survival cells,"[5]; As2O3 0.4 μg/ml, 20 h",0.99 10^5/ml
same,Death rate,"[5]; As2O3 0.4 μg/ml, 68 h",88%
same,the number of survival cells,"[5]; As2O3 0.4 μg/ml, 68 h",0.30 10^5/ml
same,Death rate,"[5]; As2O3 0.8 μg/ml, 20 h",68%
same,the number of survival cells,"[5]; As2O3 0.8 μg/ml, 20 h",0.58 10^5/ml
same,Death rate,"[5]; As2O3 0.8 μg/ml, 68 h",98%
same,the number of survival cells,"[5]; As2O3 0.8 μg/ml, 68 h",0.06 10^5/ml
same,sensitivity of Daudi cells to As2O3-induced cell death relative to jurkat cells,[5]; comparison of Table 2 with Table 3,more sensitive
same,"morphological changes, apoptotic bodies",[6],"nuclear fragmentation, cellular debris and apoptotic bodies appear"
same,relation of jurkat cell apoptotic rate to concentration,"[7]; R=0.997 (P<0.01), dose-dependent",positively correlated with the concentration
same,Apoptotic rate,[7]; As2O3 0.2 μg/ml,0.7%
same,Early apoptotic rate,[7]; As2O3 0.2 μg/ml,6.5%
same,Early apoptotic rate + Apoptotic rate,[7]; As2O3 0.2 μg/ml,7.2%
same,Survival rate,[7]; As2O3 0.2 μg/ml,92.8%
same,Apoptotic rate,[7]; As2O3 0.4 μg/ml,1.4%
same,Early apoptotic rate,[7]; As2O3 0.4 μg/ml,14.1%
same,Early apoptotic rate + Apoptotic rate,[7]; As2O3 0.4 μg/ml,15.5%
same,Survival rate,[7]; As2O3 0.4 μg/ml,84.5%
same,Apoptotic rate,[7]; As2O3 0.8 μg/ml,5.0%
same,Early apoptotic rate,[7]; As2O3 0.8 μg/ml,26.1%
same,Early apoptotic rate + Apoptotic rate,[7]; As2O3 0.8 μg/ml,31.0%
same,Survival rate,[7]; As2O3 0.8 μg/ml,69.0%
same,Apoptotic rate,[7]; As2O3 1.6 μg/ml,15.8%
same,Early apoptotic rate,[7]; As2O3 1.6 μg/ml,50.8%
same,Early apoptotic rate + Apoptotic rate,[7]; As2O3 1.6 μg/ml,66.6%
same,Survival rate,[7]; As2O3 1.6 μg/ml,33.4%
